Assay results as given in ChEMBL document CHEMBL2034960, “Bryonolic acid transcriptional control of anti-inflammatory and antioxidant genes in macrophages in vitro and in vivo” (J Nat Prod, 2012).

Tested on: RAW264.7
Experiment: Cytotoxicity against mouse RAW264.7 cells at 100 uM after 8 hrs by MTT assay
Assay type: cell-based
Settings: raw264.7, 8 h

## C[C@H]1[C@H](C)CC[C@]2(C(=O)O)CC[C@]3(C)C(=CC[C@@H]4[C@@]5(C)CC[C@H](O)C(C)(C)[C@@H]5CC[C@]43C)[C@H]12 [URSOLIC ACID]
  Activity: Toxic
